The text below walks through data of US20170000715A1, “PEGYLATED 7-DEHYDROCHOLESTEROL DERIVATIVES” (HUMEDIX CO., LTD., priority 2014, published 2017).

The nature of the series: Solubility test (saturated aqueous solution in distilled water, gravimetric). The series is classed as physicochemical. To be noted: room temperature, calculated according to Equation 1. On the procedure:
Each of compounds of Examples 1 and 5 and 7-dehydrocholesterol as a comparative material was dissolved in an amount of 100 mg in 100 ml of distilled water, followed by stirring at room temperature for 1 hour. The procedure was repeated until each compound was saturated and those being not dissolved were filtered, to prepare each saturated aqueous solution.
Then, the saturated aqueous solution was put into a weighed empty container (A), followed by weighing (B). Then, the saturated aqueous solution in the container was concentrated in reduced pressure and dried under vacuum, followed by weighing (C). The solubility of each solution was calculated according to the following Equation 1, and the results thereof are shown in Table 2.

On to `CC(C)CCC[C@@H](C)[C@H]1CC[C@H]2C3=CC=C4C[C@@H](O)CC[C@]4(C)[C@H]3CC[C@]12C` [7-Dehydrocholesterol, 7-dehydrocholesterol], for which the Solubility entry is “Insoluble”.
